Data from patent publication US20240208968A1, “ALPHA V BETA 6 AND ALPHA V BETA 1 INTEGRIN INHIBITORS AND USES THEREOF” (DiCE Molecules SV, Inc., priority 2021, published 2024).
Where a name gives a salt, the structure may show the parent alone.

Legend:
[1] = biological target: αvβ1 (Homo sapiens, UniProt P05556+P06756); test: Solid Phase Integrin αvβ1 Assay; format: binding
How it was run: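 Compound competes for αvβ1 binding to immobilized TGFb1-LAP (1 µg/mL coat) in Mn2+ (1 mM MnCl2), 2% BSA binding buffer over 90 min at room temperature, integrin added at 0.2 µg/mL. Read-out: streptavidin-HRP/TMB; IC50 from Levenberg-Marquardt four-parameter fit.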

[2] = biological target: αvβ6 (Homo sapiens, UniProt P06756+P18564); test: Solid Phase Integrin αvβ6 Assay; format: binding
How it was run: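 Inhibition of αvβ6 binding to immobilized recombinant TGFb1-LAP (1 μg/mL coating), 1 h at room temperature with 1 mM MnCl2 in BSA/TBST buffer, integrin diluted to 0.2 μg/mL before addition. Streptavidin-HRP/TMB read-out; four-parameter logistic fitting gave IC50.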

αvβ1, sequence (P06756 31-992 limits assumed): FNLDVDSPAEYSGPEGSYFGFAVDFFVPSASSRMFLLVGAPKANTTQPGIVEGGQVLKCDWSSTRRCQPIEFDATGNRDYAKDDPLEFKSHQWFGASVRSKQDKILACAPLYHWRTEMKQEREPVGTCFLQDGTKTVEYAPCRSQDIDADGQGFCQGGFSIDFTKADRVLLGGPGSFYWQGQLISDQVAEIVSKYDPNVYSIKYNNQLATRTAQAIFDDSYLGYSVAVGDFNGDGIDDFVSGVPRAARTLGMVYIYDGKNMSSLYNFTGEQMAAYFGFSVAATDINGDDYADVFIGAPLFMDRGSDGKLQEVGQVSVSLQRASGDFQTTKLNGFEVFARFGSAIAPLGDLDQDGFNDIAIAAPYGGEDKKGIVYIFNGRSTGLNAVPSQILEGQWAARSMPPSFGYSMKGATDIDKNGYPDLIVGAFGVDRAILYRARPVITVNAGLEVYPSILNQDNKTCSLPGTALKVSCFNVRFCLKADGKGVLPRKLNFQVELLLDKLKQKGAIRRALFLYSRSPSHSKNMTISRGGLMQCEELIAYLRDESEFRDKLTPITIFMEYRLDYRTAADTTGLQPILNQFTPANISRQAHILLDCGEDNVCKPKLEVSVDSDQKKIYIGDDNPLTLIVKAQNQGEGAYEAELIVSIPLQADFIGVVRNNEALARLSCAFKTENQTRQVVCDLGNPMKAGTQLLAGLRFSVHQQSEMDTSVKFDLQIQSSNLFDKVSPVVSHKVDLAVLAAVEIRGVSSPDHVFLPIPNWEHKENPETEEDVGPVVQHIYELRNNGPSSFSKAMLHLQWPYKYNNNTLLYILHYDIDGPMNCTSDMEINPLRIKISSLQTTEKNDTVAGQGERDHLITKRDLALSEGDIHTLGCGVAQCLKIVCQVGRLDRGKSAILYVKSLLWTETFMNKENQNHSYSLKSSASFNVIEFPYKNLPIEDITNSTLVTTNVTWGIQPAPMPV
αvβ1, sequence (P05556 21-728 limits assumed): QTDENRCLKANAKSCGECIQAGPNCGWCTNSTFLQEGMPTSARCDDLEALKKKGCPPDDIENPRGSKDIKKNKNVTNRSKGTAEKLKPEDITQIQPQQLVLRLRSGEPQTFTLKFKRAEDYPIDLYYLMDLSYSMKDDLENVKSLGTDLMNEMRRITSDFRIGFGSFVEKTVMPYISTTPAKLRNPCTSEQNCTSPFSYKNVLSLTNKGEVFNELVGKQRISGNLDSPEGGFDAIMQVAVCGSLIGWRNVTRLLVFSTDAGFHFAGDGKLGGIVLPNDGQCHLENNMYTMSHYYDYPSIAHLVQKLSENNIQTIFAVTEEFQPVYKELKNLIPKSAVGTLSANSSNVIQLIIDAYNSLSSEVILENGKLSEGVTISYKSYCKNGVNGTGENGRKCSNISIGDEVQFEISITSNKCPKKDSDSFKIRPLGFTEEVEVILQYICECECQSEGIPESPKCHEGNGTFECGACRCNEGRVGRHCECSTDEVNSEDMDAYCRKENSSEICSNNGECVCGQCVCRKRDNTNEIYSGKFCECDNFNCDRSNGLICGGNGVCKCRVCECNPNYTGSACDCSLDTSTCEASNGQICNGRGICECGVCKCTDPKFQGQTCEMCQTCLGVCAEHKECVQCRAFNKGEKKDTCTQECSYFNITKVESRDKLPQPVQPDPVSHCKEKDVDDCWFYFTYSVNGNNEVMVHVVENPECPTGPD
αvβ6, sequence (P06756 31-992 limits assumed): as the sequence (P06756 31-992 limits assumed) above
αvβ6, sequence (P18564 22-707 limits assumed): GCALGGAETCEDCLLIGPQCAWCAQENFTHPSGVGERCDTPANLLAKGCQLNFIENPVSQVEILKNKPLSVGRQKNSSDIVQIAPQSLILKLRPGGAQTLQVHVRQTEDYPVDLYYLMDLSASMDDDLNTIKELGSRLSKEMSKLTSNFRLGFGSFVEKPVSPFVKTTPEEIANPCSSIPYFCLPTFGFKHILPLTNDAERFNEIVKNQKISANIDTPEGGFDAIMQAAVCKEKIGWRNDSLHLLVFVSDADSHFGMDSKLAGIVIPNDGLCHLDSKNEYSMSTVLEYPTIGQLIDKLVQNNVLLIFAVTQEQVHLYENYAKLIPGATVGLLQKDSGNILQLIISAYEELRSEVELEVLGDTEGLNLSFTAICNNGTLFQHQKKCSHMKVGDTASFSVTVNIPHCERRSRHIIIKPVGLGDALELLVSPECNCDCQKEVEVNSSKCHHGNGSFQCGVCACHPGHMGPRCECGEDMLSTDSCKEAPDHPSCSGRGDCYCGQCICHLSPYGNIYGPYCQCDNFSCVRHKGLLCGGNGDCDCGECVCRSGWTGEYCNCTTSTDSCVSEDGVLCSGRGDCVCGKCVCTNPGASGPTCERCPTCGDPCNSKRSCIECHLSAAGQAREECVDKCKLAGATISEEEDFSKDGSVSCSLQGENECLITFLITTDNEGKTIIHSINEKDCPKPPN

Structure (SMILES)	IC50 [1] [µM]	IC50 [2] [µM]
O=C(O)CC(NC(=O)[C@@H]1CCCN(CCCc2ccc3c(n2)NCCC3)C1)c1cccc2c1OCO2 (stereo partly drawn) [Compound 218, 3-(benzo[d][1,3]dioxol-4-yl-3-((R)-1-(3-(5,6,7,8-tetrahydro-1,8-naphthyridin-2-yl)propyl)piperidine-3-carboxamido)propanoic acid hydrochloride]	< 0.1	< 0.1
O=C(O)[C@@H](CCO[C@@H]1CCCN(CCCc2ccc3c(n2)NCCC3)C1)Nc1ncnc2sccc12 [Compound 498]	< 0.1	< 0.1
Cc1cnn(C)c1-c1cccc([C@H](CC(=O)O)NC(=O)[C@@H]2CCCN(CCCc3ccc4c(n3)NCCC4)C2)c1 [Compound 226, (S)-3-(3-(1,4-dimethyl-1H-pyrazol-5-yl)phenyl)-3-((R)-1-(3-(5,6,7,8-tetrahydro-1,8-naphthyridin-2-yl)propyl)piperidine-3-carboxamido)propanoic acid hydrochloride]	< 0.1	< 0.1
O=C(O)CC(CC(=O)N[C@H]1CCN(C(=O)CCCc2ccc3c(n2)NCCC3)C1)c1ccccc1 (stereo partly shown) [Compound 520]	< 0.1	0.1 to 1
C[C@@H]1C[C@@H](C(=O)NC[C@H](C(=O)O)c2ccc3ccccc3c2)CN(CCCc2ccc3c(n2)NCCC3)C1 [Compound 632]	0.1 to 1	0.1 to 1
O=C(O)C[C@H](NC(=O)[C@@H]1CCCN(CCCc2ccc3c(n2)NCCC3)C1)c1ccc2nccnc2c1 [Compound 215-A, 3-(quinoxalin-6-yl)-3-((R)-1-(3-(5,6,7,8-tetrahydro-1,8-naphthyridin-2-yl)propyl)piperidine-3-carboxamido)propanoic acid]	< 0.1	< 0.1
O=C(O)C[C@@H](NC(=O)[C@@H]1CCCN(CCCc2ccc3c(n2)NCCC3)C1)c1ccc2c(c1)C1(CC2)CC1 [Compound 328]	0.1 to 1	0.1 to 1
O=C(NC[C@H](Nc1cccc2ccccc12)C(=O)O)[C@@H]1CCCN(CCCc2ccc3c(n2)NCCC3)C1 [Compound 261, (S)-2-(naphthalen-1-ylamino)-3-((R)-1-(3-(5,6,7,8-tetrahydro-1,8-naphthyridin-2-yl)propyl)piperdine-3-carboxamido)propanoic acid]	< 0.1	< 0.1
O=C(NC[C@@H](Nc1ccccc1C1CC(F)(F)C1)C(=O)O)[C@@H]1CCCN(CCCc2ccc3c(n2)NCCC3)C1 [Compound 588]	< 0.1	< 0.1
O=C(O)C[C@@H](NC(=O)[C@@H]1CCCN(CCCc2ccc3c(n2)NCCC3)C1)c1cccc(OC2COC2)c1 [Compound 412]	< 0.1	< 0.1
C[C@H]1C[C@H](C(=O)NC[C@@H](C(=O)O)c2ccc3ccccc3c2)CN(CCCc2ccc3c(n2)NCCC3)C1 [Compound 643]	< 0.1	< 0.1
C[C@@H]1CCN(CCCc2ccc3c(n2)NCCC3)C[C@@H]1C(=O)N[C@@H](CC(=O)O)c1ccccc1 [Compound 551]	0.1 to 1	< 0.1
O=C(O)C[C@@H](NC(=O)[C@@H]1CCCN(CCCc2ccc3c(n2)NCCC3)C1)c1ccc2c(c1)CCCC2 (single isomer, unassigned) [Compound 204-B]	< 0.1	< 0.1
Cc1cc([C@@H](CO[C@@H]2CCCN(CCCc3ccc4c(n3)NCCC4)C2)CC(=O)O)cc(N2CCOC(C)(C)C2)c1 [Compound 579]	< 0.1	< 0.1
CC1(C)CCCN(c2cccc([C@@H](CO[C@@H]3CCCN(CCCc4ccc5c(n4)NCCC5)C3)CC(=O)O)c2)C1 [Compound 570]	< 0.1	< 0.1
C[C@@H]1C[C@H](C(=O)NC[C@@H](C(=O)O)c2cccc(-c3ccccc3)c2)CN(CCCc2ccc3c(n2)NCCC3)C1 [Compound 642]	> 1	> 1
O=C(NC[C@@H](C(=O)O)c1cccc2c1cnn2CC1CC1)[C@@H]1CCCN(CCCc2ccc3c(n2)NCCC3)C1 [Compound 314]	0.1 to 1	0.1 to 1
O=C(O)[C@H](CCO[C@@H]1CCCN(Cc2ccc3c(n2)NCCC3)C1)Nc1ncnc2ccccc12 [Compound 387]	< 0.1	0.1 to 1
O=C(O)[C@@H](CCO[C@@H]1CCCN(CCCc2ccc3c(n2)NCCC3)C1)Nc1ncnc2ccccc12 [Compound 332]	> 1	0.1 to 1
CN(C[C@@H]1CCCN(CCCc2ccc3c(n2)NCCC3)C1)[C@@H](CC(=O)O)c1ccccc1 [Compound 293, (S)-3-(methyl(((R)-1-(3-(5,6,7,8-tetrahydro-1,8-naphthyridin-2-yl)propyl)piperidin-3-yl)methyl)amino)-3-phenylpropanoic acid hydrochloride]	> 1	> 1
O=C(NC[C@H](C(=O)O)c1cccc(-c2ccncc2)c1)[C@@H]1CCCN(CCCc2ccc3c(n2)NCCC3)C1 [Compound 517]	< 0.1	< 0.1
CN(C[C@@H]1CCCN(CCCc2ccc3c(n2)NCCC3)C1)[C@@H](CC(=O)O)c1cccc(C2CC2)c1 [Compound 530]	> 1	> 1

Structure (SMILES)	IC50 [1] [µM]	IC50 [2] [µM]
O=C(CC[C@H](NC(=O)[C@H]1CCCN1S(=O)(=O)c1ccccc1)C(=O)O)N[C@H]1CCN(C(=O)CCCc2ccc3c(n2)NCCC3)C1 [Compound 438]	< 0.1	< 0.1
O=C(O)[C@@H](CCO[C@@H]1CCCN(CCCc2ccc3c(n2)NCCC3)C1)c1cccc2c1cnn2CC1CC1 [Compound 486]	0.1 to 1	< 0.1
O=C(NC[C@H](C(=O)O)c1cccc2ccccc12)[C@@H]1CCCN(CCCc2ccc3c(n2)NCCC3)C1 [Compound 250-B, 2-(naphthalen-1-yl)-3-((R)-1-(3-(5,6,7,8-tetrahydro-1,8-naphthyridin-2-yl)propyl)piperidine-3-carboxamido)propanoic acid]	0.1 to 1	> 1
O=C(O)[C@@](O)(CO[C@@H]1CCCN(CCCCc2ccc3c(n2)NCCC3)C1)c1ccccc1 [Compound 454]	> 1	> 1
O=C(NC[C@@H](C(=O)O)c1cc(F)cc(-c2cccc(F)c2)c1)[C@@H]1CCCN(CCCc2ccc3c(n2)NCCC3)C1 [Compound 636]	< 0.1	< 0.1
C[C@H]1CCN(CCCc2ccc3c(n2)NCCC3)C[C@H]1C(=O)N[C@@H](CC(=O)O)c1ccccc1 [Compound 378]	> 1	0.1 to 1
O=C(O)C[C@@H](O[C@@H]1CCCN(CCCCc2ccc3c(n2)NCCC3)C1)c1ccccc1 [Compound 391]	> 1	> 1
O=C(O)C[C@@H](CO[C@@H]1CCCN(CCCc2ccc3c(n2)NCCC3)C1)c1cccc(N2CCCC2=O)c1 [Compound 504]	< 0.1	< 0.1
O=C(NC[C@H](C(=O)O)c1ccc2c(c1)CCC2)[C@@H]1CCCN(CCCc2ccc3c(n2)NCCC3)C1 [Compound 254-A, 2-(2,3-dihydro-1H-inden-5-yl)-3-((R)-1-(3-(5,6,7,8-tetrahydro-1,8-naphthyridin-2-yl)propyl)piperidine-3-carboxamido)propanoic acid]	< 0.1	0.1 to 1
O=C(O)C[C@@H](O[C@@H]1CCCN(Cc2ccc3c(n2)NCCC3)C1)c1ccccc1 [Compound 390]	> 1	> 1
C[C@@H]1C[C@H](C(=O)NC[C@H](C(=O)O)c2ccc3ccccc3c2)CN(CCCc2ccc3c(n2)NCCC3)C1 [Compound 634]	0.1 to 1	0.1 to 1
O=C(O)C[C@H](NC(=O)[C@@H]1CCCN(CCCc2ccc3c(n2)NCCC3)C1)c1cccc2c1CCCO2 [Compound 216-A, 3-(chroman-5-yl)-3-((R)-1-(3-(5,6,7,8-tetrahydro-1,8-naphthyridin-2-yl)propyl)piperidine-3-carboxamido)propanoic acid]	0.1 to 1	< 0.1
O=C(O)[C@H](CO[C@@H]1CCCN(Cc2ccc3c(n2)NCCC3)C1)c1ccccc1 [Compound 396]	> 1	> 1
O=C(O)C[C@H](NC(=O)[C@@H]1CCCN(CCCc2ccc3c(n2)NCCC3)C1)c1cccc2c1OCO2 [Compound 614]	< 0.1	< 0.1
O=C(NC[C@@H](C(=O)O)c1cccc(-c2ccccc2C(F)(F)F)c1)[C@@H]1CCCN(CCCc2ccc3c(n2)NCCC3)C1 [Compound 625]	> 1	0.1 to 1
CC1(C)CN(c2cc(Cl)cc(C(CO[C@@H]3CCCN(CCCc4ccc5c(n4)NCCC5)C3)CC(=O)O)c2)CCO1 (stereo partly shown) [Compound 650]	< 0.1	< 0.1
CC1(C)CCCN(c2cccc([C@@H](CNC(=O)[C@@H]3CCCN(CCCc4ccc5c(n4)NCCC5)C3)C(=O)O)c2)C1 [Compound 599]	< 0.1	< 0.1
CN1CCc2ccc(S(=O)(=O)N[C@@H](CNC(=O)[C@@H]3CCCN(CCCc4ccc5c(n4)NCCC5)C3)C(=O)O)cc21 [Compound 448]	< 0.1	< 0.1
O=C(O)[C@H](CCO[C@@H]1CCCN(CCCc2ccc3c(n2)NCCC3)C1)Nc1ncnc2sccc12 [Compound 472]	> 1	< 0.1
CC1(C)CN(c2cc([C@@H](CO[C@@H]3CCCN(CCCc4ccc5c(n4)NCCC5)C3)CC(=O)O)ccc2F)CCO1 [Compound 578]	< 0.1	< 0.1
C[C@H]1C[C@H](C(=O)N[C@@H](CC(=O)O)c2ccccc2)CN(CCCc2ccc3c(n2)NCCC3)C1 [Compound 380]	0.1 to 1	< 0.1
O=C(O)C[C@H](NC(=O)[C@@H]1CCCN(CCCc2ccc3c(n2)NCCC3)C1)c1cccc2c1CCCC2 [Compound 212-A, 3-((R)-1-(3-(5,6,7,8-tetrahydro-1,8-naphthyridin-2-yl)propyl)piperidine-3-carboxamido)-3-(5,6,7,8-tetrahydronaphthalen-1-yl)propanoic acid]	> 1	> 1
